Measured values taken from patent US20030068282A1, “Composition” (Unilever Home & Personal Care USA, Division of Conopco, Inc., priority 2001, published 2003).

Test: salivary sediment model: amount of n-octyl paraben delivered from toothpaste to salivary sediment
Assay type: in vitro ADME
Details: for amount of paraben delivered, Rep 1 / amount of paraben delivered, Rep 2 / amount of paraben delivered, Mean: toothpaste with 1.1% n-octyl paraben; for amount of paraben delivered, Rep 1 / amount of paraben delivered, Rep 2: ex-vivo samples; for amount of paraben delivered, Mean: mean of two repetitions
Method: Standard toothpastes comprising SLS and n-octyl paraben were tested in a salivary sediment model similar to that described by R. L. Wijeijweera and I. Kleinberg in Archs. Oral Biol., Vol. 34, No. 1, 1989, pages 43-53, using ex-vivo samples and measuring the amount of n-octyl paraben delivered to the salivary sediment.
Two repetitions were carried out for each SLS level in a paste comprising 1.1% n-octyl paraben. The values represnet the amount (ppm per ml sediment suspension) of paraben delivered.

Structure (SMILES): CCCCCCCCOC(=O)c1ccc(O)cc1 [n-octyl paraben]
- level of paraben delivered, comparison between SLS levels (SLS levels 1.4 and 1.6% compared with 1.8%): greater at SLS levels ranging at 1.4 and 1.6% than for 1.8%
- amount of paraben delivered, Rep 1 (1.4% SLS in base): 60.080 ppm per ml sediment suspension
- amount of paraben delivered, Rep 2 (1.4% SLS in base): 61.657 ppm per ml sediment suspension
- amount of paraben delivered, Mean (1.4% SLS in base): 60.869 ppm per ml sediment suspension
- amount of paraben delivered, Rep 1 (1.6% SLS in base): 59.534 ppm per ml sediment suspension
- amount of paraben delivered, Rep 2 (1.6% SLS in base): 63.775 ppm per ml sediment suspension
- amount of paraben delivered, Mean (1.6% SLS in base): 61.654 ppm per ml sediment suspension
- amount of paraben delivered, Rep 1 (1.8% SLS in base): 48.790 ppm per ml sediment suspension
- amount of paraben delivered, Rep 2 (1.8% SLS in base): 48.352 ppm per ml sediment suspension
- amount of paraben delivered, Mean (1.8% SLS in base): 48.571 ppm per ml sediment suspension
